Like-named read-outs stand apart in the source and are kept apart here.
Tests used:
Format in all cases: in vitro ADME
[1] = Hepatocyte Stability Assay, rat; conditions: rat hepatocytes; further: tested at 1 µM
Procedure: (§1) • Preparation of working solutions: 10 mM stock solutions of test compound and positive control were prepared in DMSO. In separate conical tubes, the 10 mM solution of test compound and the positive control were diluted to 100 μM by combining 198 μL of 50% acetonitrile/50% water and 2 μL of 10 mM stock.
Preparation of Hepatocytes: Incubation medium (William's E Medium supplemented with GlutaMAX) and hepatocyte thawing medium were placed in a 37° C. water bath and allowed warming for at least 15 minutes prior to use. A vial of cryopreserved hepatocytes was transferred from storage, ensuring that vials remained at cryogenic temperatures until thawing process ensued. Cells were thawed by placing the vial in a 37° C. water bath and gently shaking the vials for 2 minutes. After thawing was completed, vial was sprayed with 70% ethanol and transferred to a biosafety cabinet. Wide-bore pipette tip were used to transfer hepatocytes into 50 mL conical tube containing thawing medium. The 50 mL conical tube were placed into a centrifuge and spun at 100 g for 10 minutes. Upon completion of spin, thawing medium was aspirated and resuspended hepatocytes in enough incubation medium to yield ˜1.5×10^6 cells/mL. Using an AO/PI Staining, cells were counted and the viable cell density was determined. Cells with poor viability (<75% viability) were determined to be not acceptable for use. Cells were diluted with incubation medium to a working cell density of 0.5×10^6 viable cells/mL.
Procedure for Stability Determination: 198 μL of hepatocytes were pipetted into each wells of a 96-well non-coated plate. The plate was placed in the incubator to allow the hepatocytes to warm for 10 minutes. 2 μL of the 100 μM test compound or positive control solutions were pipetted into respective wells of the 96-well non-coated plate to start the reaction. The plate was returned to the incubator for the designed time points. Well contents was transferred in 25 μL aliquots at time points of 0, 15, 30, 60, 90 and 120 minutes. The aliquots were then mixed with 6 volumes (150 μL) of acetonitrile containing internal standard, IS (100 nM alprazolam, 200 nM caffeine and 100 nM tolbutamide) to terminate the reaction. The mixture was vortex for 5 minutes. Samples were centrifuged for 45 minutes at 3,220 g. An aliquot of 100 μL of the supernatant was diluted by 100 μL ultra-pure water, and the mixture was used for LC/MS/MS analysis. All incubations were performed in duplicate.
(§2) Data Analysis: All calculations were carried out using Microsoft Excel. Peak areas were determined from extracted ion chromatograms. In vitro half-life (t1/2) of parent compound was determined by regression analysis of the percent parent disappearance vs. time curve.
(§3) The in vitro half-life (in vitro t1/2) was determined from the slope value:
(§4) Conversion of the in vitro t1/2 (in min) into the in vitro intrinsic clearance (in vitro CLint, in μL/min/1×10^6 cells) was done using the following equation (mean of duplicate determinations):
(§5) V=incubation volume(0.2 mL);
(§6) N=number of hepatocytes per well(0.1×10^6 cells).
“+++” indicates a CLint value less than 20 mL/min/Kg, “++” indicates a CLint between 20 and 50 mL/min/Kg, and “+” indicates an CLint above 50 mL/min/Kg.

[2] = Hepatocyte Stability Assay, human; conditions: cryopreserved hepatocytes in suspension; human hepatocytes; read-out: Human hepatocyte clearance
[3] = Hepatocyte Stability Assay, mouse; conditions: mouse hepatocytes; further: tested at 1 µM
Procedure: Example 7: Hepatocyte Stability Assay
as §1, §2, §3, §4, §5, §6

[4] = Plasma Protein Binding with Ultracentrifugation Method, mouse; conditions: mouse plasma, 1.0 μM; read-out: Mouse plasma protein binding (% bound)
Procedure: (§7) The frozen plasma (stored at −80° C.) was thawed in a 37° C. water bath, followed by centrifugation at 3,220 g for 10 minutes to remove clots. The supernatant was removed into a new tube as the spun plasma. The spun plasma was pre-warmed in a 37° C. water bath for 10 minutes. The stock solutions of test compounds were diluted to 200 μM in DMSO, and then spiked into the plasma. Duplicate samples were prepared. The final concentration of compound was 1.0 μM. The final concentration of organic solvent was 0.5%. Warfarin was used as positive control in the assay. 1.0 mL of the spiked plasma was transferred to a new balance ultracentrifuge tube. Samples were incubated at 37° C., 5% CO2 for 30 minutes. After incubation, the balance ultracentrifuge tubes were centrifuged at 600,000 g for 5.5 hours at 37° C. After centrifugation, 50 μL solution was removed from the center of the ultracentrifuge tubes as the post-ultracentrifugation samples, followed by the addition of 50 μL blank plasma and 400 μL quench solution (acetonitrile containing internal standards (IS, 100 nM Alprazolam, 500 nM Labetalol and 2 μM Ketoprofen)) to precipitate protein and release compounds. Samples were vortexed for 2 minutes, followed by centrifugation at 20,000 g for 15 minutes at room temperature. The supernatant was diluted with ultrapure water and then used for LC-MS/MS analysis. Stability samples was prepared by transferring 50 μL of the spiked plasma to 0.6 mL tubes and incubated at 37° C., 5% CO2 for 0.5 and 6 hours. After incubation, 50 μL PBS (100 mM, pH7.4) and 400 μL quench solution were added to the stability samples. And then stability samples were treated the same way as the post-ultracentrifugation samples. The supernatant was diluted with ultrapure water and then used for LC-MS/MS analysis. 0.5 hour time point samples were also used as no-spun controls. Time 0 samples were prepared by transferring 50 μL spiked plasma to 0.6 mL tubes containing 50 μL PBS, followed by the addition of 400 μL quench solution to precipitate protein and release compound. And then these samples were treated the same way as the post-ultracentrifugation samples. The supernatant was diluted with ultrapure water and then used for LC-MS/MS analysis.
(§8) Data Analysis: All calculations were carried out using Microsoft Excel. The concentrations of test compound in plasma samples and post-ultracentrifugation plasma was determined from peak areas. The percentages of test compound bound was calculated as follows: […]
(§9) “+++” indicates a % bound value less than 50, “++” indicates a % bound value between 50 and 75, and “+” indicates a % bound value above 75.

[5] = Plasma Protein Binding with Ultracentrifugation Method, human; conditions: human plasma, 1.0 μM; read-out: Human plasma protein binding (% bound)
Procedure: as §7, §8, §9

[6] = Hepatocyte Stability Assay, human; conditions: human, plated hepatocytes, plated hepatocyte
[7] = Pharmaron assay, read-out: Human hepatocyte clearance Plated hepatocyte Pharmaron assay
[8] = Alliance assay, read-out: Human hepatocyte clearance Plated hepatocyte Alliance assay

CLint scaled at 1 μM [2] [mL/min/kg]	fraction unbound at 30 min, 1 μM [4]	fraction unbound at 30 min, 1 μM [5]	CLint scaled [6, 7] [mL/min/kg]	CLint scaled [6, 8] [mL/min/kg]	Structure (SMILES)	Rat hepatocyte clearance [1]	Mouse hepatocyte clearance [3]
< 20	–	–	–	–	O=c1c2cc(-c3ccc(Cl)cc3)nc(-c3cccnc3)c2ncn1C[C@@H](O)C(F)(F)F (single isomer, unassigned) [185 enantiomer 1]	++ (“++” indicates a CLint between 20 and 50 mL/min/Kg)	+ (“+” indicates an CLint above 50 mL/min/Kg)
< 20	–	–	–	–	O=c1c2cc(-c3ccc(Cl)cc3)nc(-c3cccnc3)c2ncn1C[C@H](O)C(F)(F)F (single isomer, unassigned) [185 enantiomer 2]	++ (“++” indicates a CLint between 20 and 50 mL/min/Kg)	+ (“+” indicates an CLint above 50 mL/min/Kg)
20 to 50	< 0.25	< 0.25	–	–	Cc1ccc(-c2cc3c(=O)n([C@@H](C)CO)cnc3c(-c3cccnc3)n2)cc1 [Compound 17, (S)-3-(1-hydroxypropan-2-yl)-8-(pyridin-3-yl)-6-(p-tolyl)pyrido[3,4-d]pyrimidin-4(3H)-one]	+ (“+” indicates an CLint above 50 mL/min/Kg)	+ (“+” indicates an CLint above 50 mL/min/Kg)
< 20	< 0.25	< 0.25	–	–	Cn1cc(-c2nc(-c3ccc(Cl)cc3)cc3c(=O)n(CC(C)(C)O)cnc23)cn1 [Compound 21]	+++ (“+++” indicates a CLint value less than 20 mL/min/Kg)	++ (“++” indicates a CLint between 20 and 50 mL/min/Kg)
< 20	–	–	< 20	–	C[C@@H](CO)n1cnc2c(-c3cccnc3)nc(-c3ccc(C(F)(F)F)cc3)cc2c1=O [Compound 23]	–	–
< 20	–	< 0.25	–	–	C[C@@H](CO)n1cnc2c(-n3ccnc3)nc(-c3ccc(OC(F)(F)F)cc3)cc2c1=O [Compound 44, (S)-3-(1-hydroxypropan-2-yl)-8-(1H-imidazol-1-yl)-6-(4-(trifluoromethoxy)-phenyl)pyrido[3,4-d]pyrimidin-4(3H)-one]	+++ (“+++” indicates a CLint value less than 20 mL/min/Kg)	–
< 20	–	< 0.25	–	–	C[C@@H](CO)n1cnc2c(-c3cccc(F)c3)nc(-c3ccc(C(F)(F)F)cn3)cc2c1=O [Compound 47, (S)-8-(3-fluorophenyl)-3-(1-hydroxypropan-2-yl)-6-(5-(trifluoromethyl)pyridin-2-yl)pyrido[3,4-d]pyrimidin-4(3H)-one]	+++ (“+++” indicates a CLint value less than 20 mL/min/Kg)	–
< 20	–	–	–	< 20	O=c1c2cc(-c3ccc(C(F)(F)F)nc3)nc(-c3cccnc3)c2ncn1C[C@H](O)C(F)(F)F [Compound 57]	–	–
< 20	–	–	–	–	C[C@@H](CO)n1cnc2c(-c3cnsc3)nc(-c3ccc(Cl)cc3)cc2c1=O [Compound 58]	–	++ (“++” indicates a CLint between 20 and 50 mL/min/Kg)
< 20	< 0.25	< 0.25	–	< 20	C[C@@H](CO)n1cnc2c(-c3cnn(C)c3)nc(-c3ccc(C(F)(F)F)nc3)cc2c1=O [Compound 68]	+++ (“+++” indicates a CLint value less than 20 mL/min/Kg)	–
< 20	–	< 0.25	–	–	C[C@@H](CO)n1cnc2c(-c3cccnc3)nc(-c3ccc(C4CC4)nc3)cc2c1=O [Compound 74]	++ (“++” indicates a CLint between 20 and 50 mL/min/Kg)	+ (“+” indicates an CLint above 50 mL/min/Kg)
< 20	< 0.25	< 0.25	< 20	–	O=c1c2cc(-c3ccc(C(F)(F)F)nc3)nc(-c3cccnc3)c2ncn1[C@@H]1COC[C@H]1O [Compound 79]	+++ (“+++” indicates a CLint value less than 20 mL/min/Kg)	–
< 20	–	–	–	< 20	C[C@@H](CO)n1cnc2c(-c3cnn(C)c3)nc(-c3ccc(C4CC4)nc3)cc2c1=O [Compound 83]	–	–
< 20	< 0.25	< 0.25	–	–	Cn1cc(-c2nc(-c3ccc(C(F)(F)F)cn3)cc3c(=O)n(CC(C)(C)O)cnc23)cn1 [Compound 103, 3-(2-hydroxy-2-methylpropyl)-8-(1-methyl-1H-pyrazol-4-yl)-6-(5-(trifluoromethyl)pyridin-2-yl)pyrido[3,4-d]pyrimidin-4(3H)-one]	++ (“++” indicates a CLint between 20 and 50 mL/min/Kg)	–
< 20	–	–	–	< 20	C[C@@H](CO)n1cnc2c(-n3ccnc3)nc(-c3ccc(C(F)(F)F)nc3)cc2c1=O [Compound 163, (S)-3-(1-hydroxypropan-2-yl)-8-(1H-imidazol-1-yl)-6-(6-(trifluoromethyl)pyridin-3-yl)pyrido[3,4-d]pyrimidin-4(3H)-one]	–	–

Structure (SMILES)	CLint scaled at 1 μM [2] [mL/min/kg]	fraction unbound at 30 min, 1 μM [4]	fraction unbound at 30 min, 1 μM [5]	CLint scaled [6, 7] [mL/min/kg]	CLint scaled [6, 8] [mL/min/kg]	Rat hepatocyte clearance [1]	Mouse hepatocyte clearance [3]
C[C@@H](CO)n1cnc2c(-c3cccc(F)c3)nc(-c3ccc(Cl)cc3)cc2c1=O [Compound 7]	20 to 50	< 0.25	< 0.25	–	–	++ (“++” indicates a CLint between 20 and 50 mL/min/Kg)	++ (“++” indicates a CLint between 20 and 50 mL/min/Kg)
O=c1c2cc(-c3ccc(Cl)cc3)nc(-c3cccnc3)c2ncn1[C@H]1COC[C@@H]1O [Compound 125, 6-(4-chlorophenyl)-3-((3S,4R)-4-hydroxytetrahydrofuran-3-yl)-8-(pyridin-3-yl)pyrido[3,4-d]pyrimidin-4(3H)-one]	< 20	< 0.25	< 0.25	< 20	–	+ (“+” indicates an CLint above 50 mL/min/Kg)	–
